Experimental data reported in PubChem BioAssay (NCI).
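A five-concentration, 48-hour dose response in 96-well plates underlies each endpoint, interpolated linearly between surrounding concentrations. TGI marks complete inhibition of growth.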

How the values were obtained:
Assay in all cases: NCI tumour cell line growth inhibition, 48 h
A498 renal = system: A498 renal
CAKI-1 renal = system: CAKI-1 renal
COLO 205 colon = system: COLO 205 colon
DU-145 prostate = system: DU-145 prostate
EKVX NSCLC = system: EKVX NSCLC
HCT-116 colon = system: HCT-116 colon
HOP-62 NSCLC = system: HOP-62 NSCLC
NCI/ADR-RES ovarian = system: NCI/ADR-RES ovarian
OVCAR-5 ovarian = system: OVCAR-5 ovarian
OVCAR-8 ovarian = system: OVCAR-8 ovarian
SF-539 CNS = system: SF-539 CNS
SK-MEL-28 melanoma = system: SK-MEL-28 melanoma
SK-MEL-5 melanoma = system: SK-MEL-5 melanoma
SN12C renal = system: SN12C renal
SNB-75 CNS = system: SNB-75 CNS
SR leukemia = system: SR leukemia
SW-620 colon = system: SW-620 colon
T-47D breast = system: T-47D breast
U251 CNS = system: U251 CNS
UACC-257 melanoma = system: UACC-257 melanoma

Row | Structure (SMILES) | TGI (A498 renal) [µM] | TGI (CAKI-1 renal) [µM] | TGI (COLO 205 colon) [µM] | TGI (DU-145 prostate) [µM] | TGI (EKVX NSCLC) [µM] | TGI (HCT-116 colon) [µM] | TGI (HOP-62 NSCLC) [µM] | TGI (NCI/ADR-RES ovarian) [µM] | TGI (OVCAR-5 ovarian) [µM] | TGI (OVCAR-8 ovarian) [µM] | TGI (SF-539 CNS) [µM] | TGI (SK-MEL-28 melanoma) [µM] | TGI (SK-MEL-5 melanoma) [µM] | TGI (SN12C renal) [µM] | TGI (SNB-75 CNS) [µM] | TGI (SR leukemia) [µM] | TGI (SW-620 colon) [µM] | TGI (T-47D breast) [µM] | TGI (U251 CNS) [µM] | TGI (UACC-257 melanoma) [µM]
1 | COC(=O)C1CCC(=O)N1CN(C(C)=O)c1cc(OC)ccc1OC (stereo not drawn) | > 100 | > 100 | > 100 | > 100 | > 100 | > 100 | > 100 | > 100 | > 100 | > 100 | > 100 | > 100 | > 100 | > 100 | > 100 | > 100 | > 100 | > 100 | > 100 | > 100
2 | CC(=O)N1c2ccccc2C2=NN(C)C(=N)SC21 (stereo not drawn) | > 100 | – | > 100 | > 100 | > 100 | > 100 | > 100 | > 100 | > 100 | > 100 | > 100 | > 100 | – | > 100 | > 100 | > 100 | > 100 | > 100 | > 100 | > 100
3 | Cn1c2c(c3ccccc31)CCN=C2C1CCCOC1=O (stereo not drawn) | > 100 | > 100 | > 100 | > 100 | > 100 | > 100 | > 100 | > 100 | > 100 | > 100 | > 100 | > 100 | > 100 | > 100 | > 100 | > 100 | > 100 | > 100 | > 100 | > 100
4 | Cc1c(O)c(OC2OC(CO)C(O)C(O)C2O)cc2c1CC[C@@H]1C2(C)C(=O)C[C@]2(C)[C@@H]([C@@](C)(O)C3CCC(C)(C)O3)[C@H](O)C[C@@]12C (stereo partly drawn) | > 100 | > 100 | > 100 | > 100 | > 100 | > 100 | > 100 | > 100 | > 100 | > 100 | > 100 | > 100 | > 100 | > 100 | > 100 | > 100 | > 100 | > 100 | > 100 | > 100
5 | COc1cccc2c1C1(O)C2CCCCCCCCCC12OCCCO2 (stereo not drawn) | > 100 | > 100 | > 100 | > 100 | – | > 100 | > 100 | > 100 | > 100 | > 100 | > 100 | > 100 | > 100 | > 100 | > 91.8 | 35.6 | > 100 | > 100 | > 100 | > 100
6 | O=C1c2c(O)cc(O)cc2C(C2OC(CO)C(O)C(O)C2O)c2cc(CO)cc(O)c21 (stereo not drawn) | > 100 | – | > 100 | > 100 | > 100 | > 100 | > 100 | > 100 | > 100 | > 100 | – | > 100 | > 100 | > 100 | 54.9 | > 100 | > 100 | > 100 | > 100 | > 100
7 | O=C(CC(O)(C(F)(F)F)C(F)(F)Cl)CC(O)(C(F)(F)F)C(F)(F)Cl (stereo not drawn) | 9.22 | > 10 | 3.07 | > 10 | > 10 | 5.31 | 5.85 | 9.5 | – | > 10 | > 10 | > 10 | 4.35 | 9.8 | > 10 | > 10 | > 10 | > 10 | 8.39 | 4.59
8 | COC1=N[C@H](C(C)C)C(OC)=N[C@H]1Cc1ccc(C[C@@H]2N=C(OC)[C@@H](C(C)C)N=C2OC)s1 | – | > 100 | > 100 | > 100 | > 100 | > 100 | > 100 | > 100 | 77.9 | > 100 | > 100 | > 100 | 47.8 | > 100 | > 100 | 51 | > 100 | 38.9 | 70.5 | 97.1
9 | CNCCN[C@@H]1c2cc3c(cc2[C@@H](c2cc(OC)c(O)c(OC)c2)[C@H]2C(=O)OC[C@@H]21)OCO3 | – | 6.86 | 12 | 1.57 | 22.7 | 5.27 | 0.678 | > 100 | 4.63 | 2.22 | 0.167 | 3.31 | 1.16 | 0.793 | 1.12 | 0.287 | > 100 | 2.6 | 2.13 | 7.61
10 | O=C1NC(N2CCCC(CO)C2)=N/C1=C\c1ccccc1 (stereo not drawn) | – | > 100 | > 100 | > 100 | > 100 | > 100 | > 100 | > 100 | > 100 | > 100 | > 100 | > 100 | > 100 | > 100 | > 100 | > 100 | > 100 | > 100 | > 100 | > 100
11 | COc1cc2cc(C(=O)N3CC(CCl)c4ccc([N+](C)(C)Cc5ccc([N+](=O)[O-])cc5)cc43)[nH]c2c(OC)c1OC (stereo not drawn) | 3.5 | 5.64 | 14.2 | 10.8 | 29.3 | – | > 100 | 4.17 | > 100 | 4.69 | 5.64 | 26.5 | 3.31 | 31 | 11.1 | 2.31 | 6.18 | 66.2 | 7.36 | –
12 | COc1ccc(C2C(C#N)=C(S)N(C3OC(COC(C)=O)C(OC(C)=O)C(OC(C)=O)C3OC(C)=O)C(C)=C2C(C)=O)cc1 (stereo not drawn) | – | > 100 | > 100 | > 100 | – | > 100 | > 100 | > 100 | > 100 | – | > 100 | > 100 | > 100 | > 100 | > 100 | > 100 | > 100 | 83.1 | > 100 | > 100
13 | O=c1cc(-c2ccccc2)[nH]c2ccc(S)cc12 | – | – | > 100 | > 100 | – | 66.9 | > 100 | 56.3 | > 100 | > 100 | > 100 | 64.6 | 29.5 | 37 | 76.1 | > 100 | > 100 | 68 | > 100 | > 100
14 | CC(=O)NC1C(OC(C)C(=O)NC(C(=O)NC(CCC(=O)NCCCNC2c3ccccc3Nc3cccc([N+](=O)[O-])c32)C(N)=O)C(C)C)C(O)C(CO)OC1(C)OCc1ccccc1 (stereo not drawn) | 4.11 | 3.05 | 7.77 | 0.817 | 3.43 | 1.3 | 5.87 | 4.76 | 9.44 | 3.28 | – | – | 0.405 | 3.82 | 4.34 | 0.634 | 1.81 | 4.16 | 3.22 | 5.14
15 | Cn1nc2ccc([N+](=O)[O-])cc2[n+]1[O-] | > 100 | > 100 | > 100 | > 100 | > 100 | > 100 | > 100 | > 100 | > 100 | > 100 | > 100 | – | > 100 | > 100 | > 100 | > 100 | – | > 100 | > 100 | > 100
16 | Cc1ccc(S(=O)(=O)NC(=O)Nc2cccc(S(N)(=O)=O)c2)cc1 | > 100 | > 100 | > 100 | > 100 | > 100 | > 100 | > 100 | > 100 | > 100 | – | > 100 | > 100 | > 100 | – | > 100 | > 100 | > 100 | > 100 | > 100 | –
17 | O=C(O)c1nc2ccc(Cl)cc2[nH]c1=O | > 100 | > 100 | > 100 | > 100 | > 100 | > 100 | > 100 | > 100 | > 100 | > 100 | > 100 | > 100 | > 100 | > 100 | – | > 100 | > 100 | > 100 | > 100 | > 100
18 | O=[N+]([O-])C1=Cc2cc(Cl)ccc2OC1c1cccc2ccccc12 (stereo not drawn) | 3.9 | 1.22 | 6.71 | 4.7 | 2.81 | 0.355 | 2.55 | > 22.3 | 4.05 | 1.42 | – | 3.13 | 2.64 | 2.54 | 1.95 | 2.07 | 0.459 | 2.81 | 3.17 | 3.4
19 | N#Cc1cc2c(cc1C#N)/C(=N\c1cccc(N)n1)N=C2Nc1cccc(N)n1 | – | 34.1 | 51.9 | > 100 | > 100 | 26.7 | 70.2 | > 100 | > 100 | > 100 | 43.2 | 48.7 | 22.1 | > 100 | 76.1 | > 100 | 60.1 | > 100 | > 100 | > 100
